Laboratory results published in ChEMBL document CHEMBL1201862, “PubChem BioAssay data set” (2004).
Active and inactive are the calls of the source.

Tests used:
Estrogen receptor beta [1] = molecular target: T1, Estrogen receptor beta (Homo sapiens, UniProt Q92731); test: ERβ–SRC-3 coactivator interaction inhibitors, confirmation, orthogonal assay, biochemical, ELISA, streptavidin-HRP readout (AID 1060)
Estrogen receptor beta [2] = molecular target: T1, Estrogen receptor beta
Estrogen receptor = molecular target: T2, Estrogen receptor (Homo sapiens, UniProt P03372);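 also: potency for inhibiting coactivator peptide recruitment to the receptor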
T2 sequence (P03372 whole entry): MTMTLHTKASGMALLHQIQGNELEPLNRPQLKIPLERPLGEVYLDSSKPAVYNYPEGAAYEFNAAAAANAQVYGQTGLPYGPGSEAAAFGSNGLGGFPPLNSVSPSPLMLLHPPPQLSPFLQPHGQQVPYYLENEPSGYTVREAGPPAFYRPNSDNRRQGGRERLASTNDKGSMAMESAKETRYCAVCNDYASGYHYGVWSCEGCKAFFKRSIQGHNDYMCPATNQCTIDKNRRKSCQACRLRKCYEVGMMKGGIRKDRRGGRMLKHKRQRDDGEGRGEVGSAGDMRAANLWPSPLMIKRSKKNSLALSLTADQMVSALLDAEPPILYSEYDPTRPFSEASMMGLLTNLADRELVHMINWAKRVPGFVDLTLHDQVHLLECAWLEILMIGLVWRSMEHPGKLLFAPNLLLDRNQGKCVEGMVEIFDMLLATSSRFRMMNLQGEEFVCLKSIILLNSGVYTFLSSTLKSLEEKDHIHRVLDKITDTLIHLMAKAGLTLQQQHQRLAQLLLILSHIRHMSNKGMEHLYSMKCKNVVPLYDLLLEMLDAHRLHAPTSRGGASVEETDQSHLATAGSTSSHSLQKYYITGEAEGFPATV

[3] = molecular target: T3, Eukaryotic translation initiation factor 2-alpha kinase 3 (Homo sapiens, UniProt Q9NZJ5); test: Dose response cell-based high-throughput screening assay to measure PERK inhibition. [Related pubchem assays: 1416 ]; type: functional
T3 sequence (Q9NZJ5 whole entry): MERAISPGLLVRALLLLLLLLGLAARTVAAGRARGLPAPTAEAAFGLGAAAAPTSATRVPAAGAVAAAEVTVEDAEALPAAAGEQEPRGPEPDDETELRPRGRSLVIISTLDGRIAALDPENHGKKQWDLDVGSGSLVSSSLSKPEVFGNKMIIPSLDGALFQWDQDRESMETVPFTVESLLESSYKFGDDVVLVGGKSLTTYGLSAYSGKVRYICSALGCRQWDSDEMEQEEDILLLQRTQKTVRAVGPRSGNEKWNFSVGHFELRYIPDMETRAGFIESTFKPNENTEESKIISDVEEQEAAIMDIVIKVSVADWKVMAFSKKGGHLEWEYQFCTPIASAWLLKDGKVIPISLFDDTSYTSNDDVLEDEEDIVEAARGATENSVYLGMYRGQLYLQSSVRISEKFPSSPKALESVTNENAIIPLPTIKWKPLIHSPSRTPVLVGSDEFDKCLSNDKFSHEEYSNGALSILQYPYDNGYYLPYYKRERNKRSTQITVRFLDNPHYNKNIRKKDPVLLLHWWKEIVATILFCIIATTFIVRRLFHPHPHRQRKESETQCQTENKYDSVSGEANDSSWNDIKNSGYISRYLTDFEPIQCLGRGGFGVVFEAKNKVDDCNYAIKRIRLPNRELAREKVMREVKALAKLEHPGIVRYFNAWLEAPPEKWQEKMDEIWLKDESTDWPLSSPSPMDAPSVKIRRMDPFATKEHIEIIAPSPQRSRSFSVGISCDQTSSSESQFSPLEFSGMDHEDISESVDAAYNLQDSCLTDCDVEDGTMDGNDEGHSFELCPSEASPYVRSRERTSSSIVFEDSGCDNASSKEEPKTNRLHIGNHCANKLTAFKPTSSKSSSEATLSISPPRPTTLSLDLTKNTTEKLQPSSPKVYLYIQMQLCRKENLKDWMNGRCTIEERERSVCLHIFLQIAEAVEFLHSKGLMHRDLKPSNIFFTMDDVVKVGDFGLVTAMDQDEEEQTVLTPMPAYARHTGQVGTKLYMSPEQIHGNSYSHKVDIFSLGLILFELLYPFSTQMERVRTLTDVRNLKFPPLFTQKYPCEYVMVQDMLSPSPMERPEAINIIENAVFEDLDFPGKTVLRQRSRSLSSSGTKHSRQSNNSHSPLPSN

[4] = molecular target: T3, Eukaryotic translation initiation factor 2-alpha kinase 3; test: Counterscreen assay for PERK inhibitors: Dose response cell-based high throughput screening assay to measure inhibition of PERK at 6 hours. [Related pubchem assays: 1522, 1416 ]; type: functional
Bcl-2-like protein 10 = Bcl-2-like protein 10 (Homo sapiens, UniProt Q9HD36); test: displacers of TR3 peptide from Bcl-B, primary screen, selectivity assay for Bfl-1 inhibitor project, biochemical, fluorescence polarization, FITC-TR3 peptide (AID 748);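 also: fluorescence polarization from a fluorescein-labelled TR3 peptide binding purified Bcl-B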
[5] = polyadenylation inhibitors in yeast reporter, dose response, luminescence, S. cerevisiae SKY197-pL101 (AID 2525); type: functional, cell-based
[6] = Luminescence Cell-Based Dose Confirmation HTS to Identify Inhibitors of Polyadenylation.; type: functional
[7] = molecular target: Transitional endoplasmic reticulum ATPase (Homo sapiens, UniProt P55072); test: p97 ATPase inhibitors, dose response, biochemical (AID 1534)
[8] = molecular target: T4, High affinity choline transporter 1 (Homo sapiens, UniProt Q9GZV3); test: CHT inhibitors, dose response, cell-based, 10-point CRC, membrane potential dye (AID 588401); type: functional;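 also: membrane potential dye fluorescence of choline-evoked depolarization via CHT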
T4 sequence (Q9GZV3 whole entry): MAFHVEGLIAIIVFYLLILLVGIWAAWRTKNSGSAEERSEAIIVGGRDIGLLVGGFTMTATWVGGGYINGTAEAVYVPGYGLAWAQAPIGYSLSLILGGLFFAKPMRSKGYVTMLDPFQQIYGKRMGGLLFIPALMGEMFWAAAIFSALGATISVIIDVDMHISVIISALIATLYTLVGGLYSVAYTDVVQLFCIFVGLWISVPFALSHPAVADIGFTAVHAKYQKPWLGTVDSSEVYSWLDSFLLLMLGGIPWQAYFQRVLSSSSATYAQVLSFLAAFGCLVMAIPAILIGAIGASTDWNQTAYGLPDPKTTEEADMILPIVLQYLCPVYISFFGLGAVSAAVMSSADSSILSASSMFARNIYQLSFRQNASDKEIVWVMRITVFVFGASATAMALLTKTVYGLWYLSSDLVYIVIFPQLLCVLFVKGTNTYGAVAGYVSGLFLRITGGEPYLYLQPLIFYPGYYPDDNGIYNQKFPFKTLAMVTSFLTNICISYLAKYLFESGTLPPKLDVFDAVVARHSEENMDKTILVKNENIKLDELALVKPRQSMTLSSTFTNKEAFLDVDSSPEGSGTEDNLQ

[9] = molecular target: T4, High affinity choline transporter 1; test: CHT inhibitors, dose response, cell-based, 5-point CRC, membrane potential dye (AID 504840); type: functional
[10] = molecular target: Transitional endoplasmic reticulum ATPase (Homo sapiens, UniProt P55072, C522A); test: C522A mutant p97 ATPase inhibitors, dose response, counter-screen for p97 inhibitor project, biochemical, luminescence (AID 1544)
[11] = HEp-2 cell cytotoxicity, dose response, cytotoxicity control for RSV inhibitor project, HTS (AID 2410); type: functional; conditions: human respiratory syncytial virus
Hexokinase HKDC1 = molecular target: T5, Hexokinase HKDC1 (Homo sapiens, UniProt Q2TB90); test: HKDC1 hexokinase inhibitors, dose response, biochemical, W721R variant (AID 504729); type: functional
T5 sequence (Q2TB90 whole entry): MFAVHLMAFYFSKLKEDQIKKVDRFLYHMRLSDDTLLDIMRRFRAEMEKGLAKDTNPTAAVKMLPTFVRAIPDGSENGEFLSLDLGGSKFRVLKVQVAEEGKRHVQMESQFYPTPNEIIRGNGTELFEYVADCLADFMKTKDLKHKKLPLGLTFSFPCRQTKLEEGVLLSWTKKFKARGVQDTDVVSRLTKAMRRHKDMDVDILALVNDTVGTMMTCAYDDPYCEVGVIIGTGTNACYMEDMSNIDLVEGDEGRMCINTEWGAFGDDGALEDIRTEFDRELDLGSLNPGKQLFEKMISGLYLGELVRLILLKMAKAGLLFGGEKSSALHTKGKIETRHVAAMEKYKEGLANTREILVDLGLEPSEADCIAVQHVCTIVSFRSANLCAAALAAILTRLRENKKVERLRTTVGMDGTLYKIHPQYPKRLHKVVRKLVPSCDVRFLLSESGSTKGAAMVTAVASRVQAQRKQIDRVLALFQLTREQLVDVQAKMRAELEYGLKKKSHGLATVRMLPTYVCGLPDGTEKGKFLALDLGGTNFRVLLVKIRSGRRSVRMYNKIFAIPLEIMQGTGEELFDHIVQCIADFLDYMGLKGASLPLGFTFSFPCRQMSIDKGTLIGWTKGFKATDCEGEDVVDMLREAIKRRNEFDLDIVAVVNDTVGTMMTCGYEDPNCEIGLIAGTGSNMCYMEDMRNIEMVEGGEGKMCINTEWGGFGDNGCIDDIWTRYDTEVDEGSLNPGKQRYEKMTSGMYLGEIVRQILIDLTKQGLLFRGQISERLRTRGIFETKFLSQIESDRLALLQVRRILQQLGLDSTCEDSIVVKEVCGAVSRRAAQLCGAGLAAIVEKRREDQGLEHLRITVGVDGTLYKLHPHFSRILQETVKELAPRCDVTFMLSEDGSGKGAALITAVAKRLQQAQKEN

[12] = A Cell Based Secondary Assay To Explore Cytotoxicity of Compounds that Sensitize Mycobacterium Tuberculosis to Beta-Lactam Antibiotics.; type: functional
[13] = molecular target: DNA dC->dU-editing enzyme APOBEC-3A (Homo sapiens, UniProt P31941); test: APOBEC3A DNA deaminase inhibitors, dose response, biochemical (AID 504722); type: functional
[14] = molecular target: DNA dC->dU-editing enzyme APOBEC-3G (Homo sapiens, UniProt Q9HC16); test: Dose Response confirmation of small molecule APOBEC3G DNA Deaminase Inhibitors via a fluorescence-based single-stranded DNA deaminase assay. [Related pubchem assays (depositor defined):AID493012, AID493028]; type: functional
Chain of DNA dC->dU-editing enzyme APOBEC-3G (Q9HC16 whole entry): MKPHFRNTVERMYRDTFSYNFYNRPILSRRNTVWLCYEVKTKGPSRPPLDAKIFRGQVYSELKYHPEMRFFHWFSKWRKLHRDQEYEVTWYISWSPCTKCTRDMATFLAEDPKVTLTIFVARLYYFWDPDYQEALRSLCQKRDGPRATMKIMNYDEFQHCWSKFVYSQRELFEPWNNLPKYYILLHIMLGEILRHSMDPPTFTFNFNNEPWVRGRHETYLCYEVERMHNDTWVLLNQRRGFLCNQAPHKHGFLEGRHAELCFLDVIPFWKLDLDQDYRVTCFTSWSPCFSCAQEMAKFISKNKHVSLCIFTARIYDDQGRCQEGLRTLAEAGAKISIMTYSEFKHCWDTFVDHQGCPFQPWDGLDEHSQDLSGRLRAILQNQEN

T1 sequence (Q92731 whole entry): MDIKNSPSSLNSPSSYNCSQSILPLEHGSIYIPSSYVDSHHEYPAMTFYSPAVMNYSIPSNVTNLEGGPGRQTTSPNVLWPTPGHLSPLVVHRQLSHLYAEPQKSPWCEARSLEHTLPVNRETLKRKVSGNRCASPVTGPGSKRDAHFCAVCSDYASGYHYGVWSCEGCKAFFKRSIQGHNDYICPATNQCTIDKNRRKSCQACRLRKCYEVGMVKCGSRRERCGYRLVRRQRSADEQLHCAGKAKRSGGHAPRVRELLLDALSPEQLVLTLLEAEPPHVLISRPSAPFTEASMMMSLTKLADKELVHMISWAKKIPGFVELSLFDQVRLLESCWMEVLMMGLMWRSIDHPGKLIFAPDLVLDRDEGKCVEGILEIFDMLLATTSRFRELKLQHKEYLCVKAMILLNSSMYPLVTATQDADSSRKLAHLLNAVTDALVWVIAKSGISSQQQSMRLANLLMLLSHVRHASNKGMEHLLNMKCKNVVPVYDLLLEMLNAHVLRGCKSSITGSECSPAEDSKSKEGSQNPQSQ
Chain of Bcl-2-like protein 10 (Q9HD36 whole entry): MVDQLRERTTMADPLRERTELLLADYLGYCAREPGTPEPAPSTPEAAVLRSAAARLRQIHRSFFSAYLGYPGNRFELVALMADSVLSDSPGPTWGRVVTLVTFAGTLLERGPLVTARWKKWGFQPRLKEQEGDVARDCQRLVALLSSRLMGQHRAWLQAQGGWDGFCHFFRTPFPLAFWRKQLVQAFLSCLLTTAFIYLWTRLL
Chain of DNA dC->dU-editing enzyme APOBEC-3A (P31941 whole entry): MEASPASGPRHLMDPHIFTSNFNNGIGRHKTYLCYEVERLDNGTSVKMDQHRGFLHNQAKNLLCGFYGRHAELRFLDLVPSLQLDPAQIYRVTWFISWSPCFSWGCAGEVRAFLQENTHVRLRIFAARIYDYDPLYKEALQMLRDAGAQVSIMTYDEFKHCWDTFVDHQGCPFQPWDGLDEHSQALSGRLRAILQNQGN
Chain of Transitional endoplasmic reticulum ATPase (Homo sapiens, UniProt P55072) (P55072 whole entry): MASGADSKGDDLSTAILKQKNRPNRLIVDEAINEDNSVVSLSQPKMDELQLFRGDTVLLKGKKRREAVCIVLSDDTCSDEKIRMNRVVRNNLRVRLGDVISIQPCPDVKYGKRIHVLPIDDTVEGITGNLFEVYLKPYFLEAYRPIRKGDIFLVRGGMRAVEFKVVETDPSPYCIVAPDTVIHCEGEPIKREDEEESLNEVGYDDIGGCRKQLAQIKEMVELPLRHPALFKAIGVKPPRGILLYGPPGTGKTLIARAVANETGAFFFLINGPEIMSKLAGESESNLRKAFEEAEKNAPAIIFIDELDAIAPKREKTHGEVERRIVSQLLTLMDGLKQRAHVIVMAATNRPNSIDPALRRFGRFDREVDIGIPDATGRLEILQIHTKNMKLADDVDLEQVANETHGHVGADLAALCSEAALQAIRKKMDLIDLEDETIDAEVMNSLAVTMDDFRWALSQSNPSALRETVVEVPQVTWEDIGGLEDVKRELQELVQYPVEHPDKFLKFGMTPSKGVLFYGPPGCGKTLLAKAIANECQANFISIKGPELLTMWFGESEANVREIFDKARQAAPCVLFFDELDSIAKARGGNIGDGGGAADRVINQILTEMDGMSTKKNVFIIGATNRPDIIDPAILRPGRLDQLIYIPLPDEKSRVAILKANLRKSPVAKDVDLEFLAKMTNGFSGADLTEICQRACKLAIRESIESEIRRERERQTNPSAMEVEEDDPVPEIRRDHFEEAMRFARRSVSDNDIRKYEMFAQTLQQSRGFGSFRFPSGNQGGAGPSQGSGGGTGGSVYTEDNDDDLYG
Chain of Transitional endoplasmic reticulum ATPase (Homo sapiens, UniProt P55072, C522A) (P55072 2-806 C522A limits assumed): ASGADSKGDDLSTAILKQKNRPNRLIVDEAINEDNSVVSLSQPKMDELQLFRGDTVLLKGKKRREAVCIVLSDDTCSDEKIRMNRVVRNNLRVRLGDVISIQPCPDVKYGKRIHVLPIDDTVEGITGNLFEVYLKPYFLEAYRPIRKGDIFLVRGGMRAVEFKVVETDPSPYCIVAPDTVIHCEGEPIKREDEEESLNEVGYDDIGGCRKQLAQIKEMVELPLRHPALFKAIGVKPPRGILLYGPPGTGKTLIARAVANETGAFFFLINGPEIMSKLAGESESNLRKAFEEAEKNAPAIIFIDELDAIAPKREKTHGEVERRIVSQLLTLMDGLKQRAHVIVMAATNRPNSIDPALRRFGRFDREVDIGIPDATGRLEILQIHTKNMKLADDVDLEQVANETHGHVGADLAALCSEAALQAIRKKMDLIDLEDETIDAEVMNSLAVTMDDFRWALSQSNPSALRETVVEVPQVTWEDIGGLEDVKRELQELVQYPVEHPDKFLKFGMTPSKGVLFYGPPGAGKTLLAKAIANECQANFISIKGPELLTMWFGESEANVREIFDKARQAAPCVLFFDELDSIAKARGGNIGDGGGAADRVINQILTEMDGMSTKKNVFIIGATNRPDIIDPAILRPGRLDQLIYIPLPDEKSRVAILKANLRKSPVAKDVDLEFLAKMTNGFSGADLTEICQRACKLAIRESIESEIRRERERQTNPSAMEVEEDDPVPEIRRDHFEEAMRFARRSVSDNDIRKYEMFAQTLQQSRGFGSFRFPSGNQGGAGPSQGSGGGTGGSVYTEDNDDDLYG

Which results are given for `O=C(CSc1nnc(-c2ccc(OC(F)F)cc2)o1)NC(=O)NCc1ccco1`?
IC50 (Estrogen receptor beta [1]): > 109 µM (not active); IC50 (Estrogen receptor beta [2]): 15.9 µM (active); IC50 (Estrogen receptor): 11.6 µM (active)

Which results are given for `COc1ccc(-c2csc(NC(=O)CSc3nc(C)cs3)n2)cc1`?
EC50 [3]: > 55.7 µM (not active); EC50 [4]: > 55.7 µM (not active)

For `COc1ccc(NC(=O)C2CCN(c3nc(C)nc4c3CCC4)CC2)cc1`, which IC50 (Bcl-2-like protein 10) is on record?
Its IC50 is 33.8 µM (active).

Which results are given for `Cc1ccc(-c2nn3c(C)nnc3s2)cc1NC(=O)CSc1ccc(Cl)cc1`?
EC50 [5]: 3.08 µM (active); EC50 [6]: 24.7 µM (active)

Which results are given for `CC(=O)c1cc2c(cc1N)OCO2`?
EC50 [3]: > 55.7 µM (not active); EC50 [4]: > 55.7 µM (not active)

With `CC(=O)Oc1cc2c3c(c1)/C(=C1/SC(=S)NC1=O)C(=O)N3C(C)(C)C=C2C` as the molecule, how does the IC50 [7] read?
The IC50 was > 50 µM (not active).

What about the IC50 [8] of the same molecule?
Its IC50 is 6.48 µM (active).

And the IC50 [9]?
Its IC50 is 1.21 µM (active).

What about the IC50 (cells) of the same molecule?
Its IC50 is 12.5 µM (active).

And the IC50 [10]?
The IC50 was > 50 µM (not active).

What about the CC50 [11] of the same molecule?
The CC50 was 14.3 µM (active).

For `CCc1nc2sc3c(O)ncnc3c2c2c1CSC(C)(C)C2`, which IC50 (Hexokinase HKDC1) is on record?
Its IC50 is 26 µM (inactive).

With `Cc1ccc(Nc2c(-c3ccc(C)o3)nc3ncccn23)cc1` as the molecule, how does the EC50 [5] read?
The EC50 was > 500 µM (not active).

What about the EC50 [6] of the same molecule?
Its EC50 is 11.6 µM (active).

With `CCN(CC)c1ccc(NC(=O)c2cc(Cl)ccc2OC)cc1` as the molecule, how does the CC50 [12] read?
Its CC50 is > 40 µM (active).

For `Cc1cccc(-n2nc([N+](=O)[O-])c(NC3CCN(Cc4ccccc4)CC3)[n+]2[O-])c1`, which CC50 [12] is on record?
The CC50 was > 40 µM (active).

Which results are given for `COc1cccc(/C=N/n2c(S)nnc2-c2cc(C)[nH]n2)c1`?
IC50 [13]: > 100 µM (inactive); IC50 [14]: 5.19 µM (active)
